Data as given in ChEMBL document CHEMBL1201862, “PubChem BioAssay data set” (2004).
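The compound was tested at five concentrations on cells cultured in 96-well plates, with a 48-hour exposure period. GI50 marks 50% less growth.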 Activity calls are given as the source filed them. Cut-off read from the data, not from the text of the source: active = GI50 up to about 1.1 µM and inactive = higher.

Experiments:
Assay in all cases: inhibition of tumour cell growth, NCI panel, 48 h
ACHN = test system: ACHN
CAKI-1 = test system: CAKI-1
COLO 205 = test system: COLO 205
EKVX = test system: EKVX
HOP-62 = test system: HOP-62
KM12 = test system: KM12
LOX IMVI = test system: LOX IMVI
OVCAR-3 = test system: OVCAR-3
OVCAR-4 = test system: OVCAR-4
SF-268 = test system: SF-268
SF-539 = test system: SF-539
SK-MEL-2 = test system: SK-MEL-2
SN12C = test system: SN12C
SNB-75 = test system: SNB-75
SR = test system: SR
UACC-62 = test system: UACC-62
UO-31 = test system: UO-31

Measured: GI50

COc1ccc(OC)c(-c2cc(O)c3cc4c(cc3n2)OCO4)c1
inactive: ACHN 6.58 µM | CAKI-1 4.12 µM | COLO 205 2.65 µM | EKVX 37.4 µM | HOP-62 13.9 µM | KM12 3.86 µM | LOX IMVI 6.07 µM | OVCAR-3 3.93 µM | OVCAR-4 35.6 µM | SF-268 7.74 µM | SF-539 5.7 µM | SK-MEL-2 4.1 µM | SN12C 6.79 µM | SNB-75 3.44 µM | SR 3.96 µM | UACC-62 3.58 µM | UO-31 19.8 µM

CCc1cc(Cc2cc(CC)c(NC(=O)C(=O)Cc3ccccn3)c(CC)c2Cl)c(Cl)c(CC)c1NC(=O)C(=O)Cc1ccccn1
inactive: ACHN > 100 µM | CAKI-1 > 100 µM | COLO 205 64 µM | EKVX > 100 µM | HOP-62 > 100 µM | KM12 78.3 µM | LOX IMVI 41.8 µM | OVCAR-3 > 100 µM | OVCAR-4 > 100 µM | SF-268 > 100 µM | SF-539 > 100 µM | SK-MEL-2 > 100 µM | SN12C > 100 µM | SNB-75 > 100 µM | SR > 100 µM | UACC-62 > 100 µM | UO-31 > 100 µM

CC(C)C12Cc3c(ccc4ccccc34)OC1(C)Oc1ccc3ccccc3c1C2 (stereo not given)
inactive: ACHN > 100 µM | CAKI-1 > 100 µM | COLO 205 > 100 µM | EKVX 10.6 µM | KM12 > 100 µM | LOX IMVI > 100 µM | OVCAR-3 59.7 µM | OVCAR-4 > 100 µM | SF-268 > 100 µM | SF-539 > 100 µM | SK-MEL-2 > 100 µM | SN12C > 100 µM | SNB-75 > 100 µM | SR > 100 µM | UACC-62 > 100 µM | UO-31 > 100 µM

CS(=O)(=O)OCCn1cnc2nc(NC(=O)c3ccccc3)[nH]c(=O)c21
inactive: ACHN > 100 µM | CAKI-1 > 100 µM | COLO 205 > 100 µM | EKVX > 100 µM | HOP-62 > 100 µM | KM12 > 100 µM | LOX IMVI > 100 µM | OVCAR-3 > 100 µM | OVCAR-4 > 100 µM | SF-268 > 100 µM | SF-539 > 100 µM | SK-MEL-2 > 100 µM | SN12C > 100 µM | SNB-75 > 100 µM | SR > 100 µM | UACC-62 > 100 µM | UO-31 > 100 µM

COc1c(OC(C)=O)cc2c(OC(C)=O)c1CC(C)CC(OC)C(O)C(C)/C=C(\C)C(OC(N)=O)C(OC)/C=C\C=C(/C)C(=O)N2 (stereo not given)
inactive: ACHN > 100 µM | CAKI-1 > 100 µM | COLO 205 5.77 µM | EKVX > 100 µM | HOP-62 > 100 µM | KM12 > 100 µM | LOX IMVI > 100 µM | OVCAR-3 98.4 µM | OVCAR-4 > 100 µM | SF-268 > 100 µM | SF-539 > 100 µM | SK-MEL-2 > 100 µM | SN12C 69.5 µM | SNB-75 > 100 µM | SR > 44.2 µM | UACC-62 > 100 µM | UO-31 > 83.6 µM

CCOCc1cc(=O)c2cc3c(cc2o1)OC(C)(C)CC3
inactive: ACHN > 100 µM | CAKI-1 > 100 µM | COLO 205 > 100 µM | EKVX > 100 µM | HOP-62 > 100 µM | KM12 > 100 µM | LOX IMVI > 100 µM | OVCAR-3 > 100 µM | OVCAR-4 > 100 µM | SF-268 > 100 µM | SF-539 > 100 µM | SK-MEL-2 > 100 µM | SN12C > 100 µM | SNB-75 > 100 µM | SR 72.3 µM | UACC-62 > 100 µM | UO-31 92.9 µM

CN(C)CN(C)c1nc(N(C)C)nc(N(C)CN(C)C)n1
inactive: ACHN 45.4 µM | CAKI-1 > 100 µM | COLO 205 27.8 µM | EKVX > 100 µM | HOP-62 > 100 µM | KM12 > 100 µM | LOX IMVI 22.9 µM | OVCAR-3 > 100 µM | OVCAR-4 42.4 µM | SF-268 51.6 µM | SF-539 50.4 µM | SK-MEL-2 20.9 µM | SN12C 63.5 µM | SNB-75 60.3 µM | SR 24.4 µM | UACC-62 19.8 µM | UO-31 > 100 µM

COc1ccc(OC)c(NC(=O)CCC/C(CC(=O)c2ccc(O)c(OC)c2)=N\Nc2nnc(C)n2N)c1
inactive: ACHN > 100 µM | CAKI-1 > 100 µM | COLO 205 > 100 µM | EKVX > 100 µM | HOP-62 > 100 µM | KM12 > 100 µM | LOX IMVI > 100 µM | OVCAR-3 > 100 µM | OVCAR-4 > 100 µM | SF-268 > 100 µM | SF-539 > 100 µM | SK-MEL-2 > 100 µM | SN12C > 100 µM | SNB-75 37.9 µM | SR > 100 µM | UACC-62 > 100 µM | UO-31 > 100 µM
